We go through 13 compounds from patent US20240199618A1, “NOVEL N-ACYL-[3-SUBSTITUTED]-[8-SUBSTITUTED]-5,6-DIHYDRO-[1,2,4]TRIAZOLO[4,3-a]PYRAZINES AS SELECTIVE NK-3 RECEPTOR ANTAGONISTS, PHARMACEUTICAL COMPOSITION, METHODS FOR USE IN NK-3 RECEPTOR-MEDIATED DISORDERS” (Ogeda SA, priority 2013, published 2024).

Series [1] addresses T1, human NK-3 receptor (Homo sapiens (Human), UniProt P29371). Kind of series: Aequorin functional assay with human NK-3 receptor (antagonist testing vs NKA). As to conditions: CHO cells, NKA at EC80 (3 nM); read-out: Functional assay: Aequorin assay with human NK-3 receptor hNK-3-AEQ (antagonist IC50). It counts as cell-based. As for the experimental part: Aequorin Assay with Human NK-3 Receptor
Changes in intracellular calcium levels are a recognized indicator of G protein-coupled receptor activity. The efficacy of compounds of the invention to inhibit NKA-mediated NK-3 receptor activation was assessed by an in vitro Aequorin functional assay. Chinese Hamster Ovary recombinant cells expressing the human NK-3 receptor and a construct that encodes the photoprotein apoaequorin were used for this assay. In the presence of the cofactor coelenterazine, apoaequorin emits a measurable luminescence that is proportional to the amount of intracellular (cytoplasmic) free calcium.
The antagonist activity of compounds of the invention is measured following pre-incubation (3 minutes) of the compound (at various concentrations) with the cells, followed by addition of the reference agonist (NKA) at a final concentration equivalent to the EC80 (3 nM) and recording of emitted light (FDSS 6000 Hamamatsu) over the subsequent 90-second period. The intensity of the emitted light is integrated using the reader software. Compound antagonist activity is measured based on the concentration-dependent inhibition of the luminescence response to the addition of Neurokinin A.

Series [2] deals with plasma protein. Description: Determination of plasma protein binding (equilibrium dialysis, RED). The format is in vitro ADME. As to conditions: 4 hours at 37° C. The text has this:
Determination of plasma protein binding The pharmacokinetic and pharmacodynamic properties of chemicals/drugs are largely a function of the reversible binding of chemicals to plasma or serum proteins. […] Consequently, the extent of the plasma protein binding (PPB) of a compound influences its action as well as its distribution and elimination.
The determination of plasma protein binding (PPB) of a compound is enabled by equilibrium dialysis, an accepted and standard method for reliable estimation of the non-bound drug fraction in plasma. RED (Rapid Equilibrium Dialysis) device insert is made of two side-by-side chambers separated by an O-ring-sealed vertical cylinder of dialysis membrane (MWCO ˜8,000). […] After 4 hours incubation at 37° C. under shaking, an aliquot is removed from each chamber and analyzed by a LC-MS/MS procedure enables the determination of both free and bound drug.
The “free fraction” may be calculated as 100%−% rPPB (i.e. the complementary percentage of that disclosed in Table 4, corresponding to the drug concentration that is unbound and therefore available to engage biological target and elicit pharmacological activity).

In series [3] the target is human NK-2 receptor (Homo sapiens (Human), UniProt P21452). Description: Selectivity assay: [125I]-Neurokinin A binding, human NK-2 receptor. As to conditions: 0.1 nM [125I]-Neurokinin A, CHO membranes; read-out: hNK-2 (Ki). The method, then:
The affinity of compounds of the invention for the NK-2 receptor was evaluated in CHO recombinant cells which express the human NK-2 receptor. Membrane suspensions were prepared from these cells. […] Binding assays were performed in a 25 mM HEPES/1 mM CaCl2)/5 mM MgCl2/0.5% BSA/10 μg/ml saponin, at pH 7.4. […] The radioactivity retained on the filters was measured by using the TopCount-NXT reader (Packard).

Series [4] has as its target human NK-1 receptor (Homo sapiens (Human), UniProt P25103). Description: Selectivity assay: [3H] substance P binding, human NK-1 receptor. As to conditions: 2 nM [3H] substance P, CHO membranes; read-out: hNK-1 (Ki). As for the experimental part:
Selectivity of the compounds of the invention was determined over the other human NK receptors, namely NK-1 and NK-2 receptors.
The affinity of compounds of the invention for the NK-1 receptor was evaluated in CHO recombinant cells which express the human NK-1 receptor. Membrane suspensions were prepared from these cells. The following radioligand: [^3H] substance P (PerkinElmer Cat #NET111520) was used in this assay. Binding assays were performed in a 50 mM Tris/5 mM MnCl2/150 mM NaCl/0.1% BSA at pH 7.4. Binding assays consisted of 25 μl of membrane suspension (approximately 5 μg of protein/well in a 96 well plate), 50 μl of compound or reference ligand (Substance P) at increasing concentrations (diluted in assay buffer) and 2 nM [^3H] substance P. The plate was incubated 60 min at 25° C. in a water bath and then filtered over GF/C filters (Perkin Elmer, 6005174, presoaked in 0.5% PEI for 2 h at room temperature) with a Filtration unit (Perkin Elmer). The radioactivity retained on the filters was measured by using the TopCount-NXT reader (Packard).

In series [5] the target is T1, human NK-3 receptor. Kind of series: 3H-SB222200 binding competition assay with human NK-3 receptor. As for the experimental part: The affinity of compounds of the invention for the human NK-3 receptor was determined by measuring the ability of compounds of the invention to competitively and reversibly displace a well-characterized NK-3 radioligand in a concentration-dependent manner.
^3H-SB222200 Binding Competition Assay with Human NK-3 Receptor
Membranes were prepared from Chinese hamster ovary recombinant cells stably expressing the human NK-3 receptor. The membranes were incubated with 5 nM ^3H-SB222200 (ARC) in a HEPES 25 mM/NaCl 0.1M/CaCl2 1 mM/MgCl2 5 mM/BSA 0.5%/Saponin 10 μg/ml buffer at pH 7.4 and various concentrations of compounds of the invention. The amount of ^3H-SB222200 bound to the receptor was determined after filtration by the quantification of membrane associated radioactivity using the TopCount-NXT reader (Packard).

The mark [6] stands for this setting: Table 2, 5 nM 3H-SB222200, CHO membranes, read-out: Competitive binding assay with human NK-3 receptor hNK-3 (Ki).
Setting [7] is: Table 3 (selectivity table), read-out: hNK-3 (Ki).

As usually defined, the pIC50 is −log10 of the IC50, conventionally taken in molar units. A word on the pKi: it is the negative decadic logarithm of the Ki, by convention in mol/L.

pIC50, pKi: −log10 of the molar value. Where two headings read alike, the source gives them in different places.

Chain of human NK-2 receptor (P21452 whole entry): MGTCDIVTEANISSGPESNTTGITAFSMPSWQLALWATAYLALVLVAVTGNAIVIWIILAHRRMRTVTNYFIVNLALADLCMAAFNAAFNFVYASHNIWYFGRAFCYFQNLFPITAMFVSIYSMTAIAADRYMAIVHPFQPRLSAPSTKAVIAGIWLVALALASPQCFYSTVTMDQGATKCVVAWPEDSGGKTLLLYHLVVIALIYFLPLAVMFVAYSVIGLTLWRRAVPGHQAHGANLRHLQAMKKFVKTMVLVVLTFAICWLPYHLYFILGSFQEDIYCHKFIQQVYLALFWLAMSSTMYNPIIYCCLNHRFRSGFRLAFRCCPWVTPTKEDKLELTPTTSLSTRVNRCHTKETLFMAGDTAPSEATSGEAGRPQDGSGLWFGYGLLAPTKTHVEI
T1 sequence (P29371 whole entry): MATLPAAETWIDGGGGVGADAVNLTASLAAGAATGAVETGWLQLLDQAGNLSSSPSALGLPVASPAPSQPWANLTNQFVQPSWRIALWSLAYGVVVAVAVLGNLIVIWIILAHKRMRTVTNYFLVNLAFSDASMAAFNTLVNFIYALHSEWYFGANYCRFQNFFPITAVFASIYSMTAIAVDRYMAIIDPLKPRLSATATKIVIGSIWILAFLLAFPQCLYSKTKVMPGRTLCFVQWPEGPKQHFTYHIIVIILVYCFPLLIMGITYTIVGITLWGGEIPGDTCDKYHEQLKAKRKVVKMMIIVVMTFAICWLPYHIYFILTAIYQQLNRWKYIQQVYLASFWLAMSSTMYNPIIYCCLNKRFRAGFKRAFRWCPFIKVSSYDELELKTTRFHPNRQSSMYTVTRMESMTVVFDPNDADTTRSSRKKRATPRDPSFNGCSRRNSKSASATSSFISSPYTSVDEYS
Chain of human NK-1 receptor (P25103 whole entry): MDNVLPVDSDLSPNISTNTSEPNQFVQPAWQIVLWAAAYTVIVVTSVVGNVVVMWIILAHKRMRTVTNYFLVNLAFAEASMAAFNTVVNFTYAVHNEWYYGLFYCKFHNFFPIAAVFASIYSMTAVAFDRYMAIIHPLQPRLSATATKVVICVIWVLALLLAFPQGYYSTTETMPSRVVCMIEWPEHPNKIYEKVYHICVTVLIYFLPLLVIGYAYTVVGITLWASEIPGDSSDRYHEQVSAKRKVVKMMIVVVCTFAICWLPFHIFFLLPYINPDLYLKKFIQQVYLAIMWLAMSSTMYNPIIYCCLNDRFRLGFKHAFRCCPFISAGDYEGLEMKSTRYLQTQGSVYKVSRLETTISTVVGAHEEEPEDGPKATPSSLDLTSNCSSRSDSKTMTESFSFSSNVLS

On to `Cc1nsc(-c2nnc3n2CCN(C(=O)c2ccc(Cl)c(Cl)c2)C3C)n1` (racemic) [Compound 38, (3,4-dichlorophenyl)(8-methyl-3-(3-methyl-1,2,4-thiadiazol-5-yl)-5,6-dihydro-[1,2,4]triazolo[4,3-a]pyrazin-7(8H)-yl)methanone], for which, in series [1], the pIC50 is 7.47. Also, in series [2], the “Exposure (% rPPB), bound drug fraction to plasma protein” value (shortened to “Exposure (% rPPB), bound drug fraction”) came to 76%. The pKi in series [3] was 4.55; in series [4], 4.68; in series [5] (setting [6]), 7.59; in series [5] (setting [7]) it was 7.59.
With `Cc1nsc(-c2nnc3n2CCN(C(=O)c2ccc(Cl)c(F)c2)C3C)n1` (racemic) [Compound 36, (4-chloro-3-fluorophenyl)(8-methyl-3-(3-methyl-1,2,4-thiadiazol-5-yl)-5,6-dihydro-[1,2,4]triazolo[4,3-a]pyrazin-7(8H)-yl)methanone], the pIC50 in series [1] is 7.24. Besides, the “Exposure (% rPPB), bound drug fraction” value in series [2] was found to be 60%. Besides, the pKi in series [3] is 4.44; in series [4], < 4.52; in series [5] (setting [6]) it was 7.37; in series [5] (setting [7]), 7.37.
In the case of `COc1cc(C(=O)N2CCn3c(-c4nc(C)ns4)nnc3[C@H]2C)ccc1F` [Compound 25, (R)-(4-fluoro-3-methoxyphenyl)(8-methyl-3-(3-methyl-1,2,4-thiadiazol-5-yl)-5,6-dihydro-[1,2,4]triazolo[4,3-a]pyrazin-7(8H)-yl)methanone], the pIC50 in series [1] was 6.96. The “Exposure (% rPPB), bound drug fraction” value in series [2] is on record as 19%. Also, the pKi in series [3] was < 4.52; in series [4], < 4.52; in series [5] (setting [6]) it was 7.07; in series [5] (setting [7]), 7.07.
In the case of `Cc1nsc(-c2nnc3n2CCN(C(=O)c2ccc(Cl)cc2)C3C)n1` (racemic) [Compound 37, (4-chlorophenyl)(8-methyl-3-(3-methyl-1,2,4-thiadiazol-5-yl)-5,6-dihydro-[1,2,4]triazolo[4,3-a]pyrazin-7(8H)-yl)methanone], in series [1], the pIC50 is 7.28. For the same compound, the negative logarithm of the Ki (pKi) in series [3] was < 4.52; in series [4], 4.49; in series [5] (setting [6]) it was 7.39; in series [5] (setting [7]), 7.39.
For the compound `CCC[C@@H]1c2nnc(-c3nc(C)ns3)n2CCN1C(=O)c1ccc(F)cc1` [Compound 24, (R)-(4-fluorophenyl)(3-(3-methyl-1,2,4-thiadiazol-5-yl)-8-propyl-5,6-dihydro-[1,2,4]triazolo[4,3-a]pyrazin-7(8H)-yl)methanone], in series [1], the negative logarithm of the IC50 (pIC50) was 6.92. For the same compound, in series [2], the “Exposure (% rPPB), bound drug fraction” value is 48%. The negative-log Ki (pKi) in series [3] is < 4.52; in series [4] it was < 4.52; in series [5] (setting [6]), 7.11; in series [5] (setting [7]) it was 7.11.
As for `Cc1nsc(-c2nnc3n2CCN(C(=O)c2ccccc2C)[C@@H]3C)n1` [Compound 26, (R)-(8-methyl-3-(3-methyl-1,2,4-thiadiazol-5-yl)-5,6-dihydro-[1,2,4]triazolo[4,3-a]pyrazin-7(8H)-yl)(o-tolyl)methanone], the pIC50 in series [1] was 7.13. Also, in series [2], the “Exposure (% rPPB), bound drug fraction” value was determined as 19%. In addition, the pKi in series [3] is < 4.52; in series [4], < 4.52; in series [5] (setting [6]) it was 7.06; in series [5] (setting [7]), 7.06.
Consider `Cc1nsc(-c2nnc3n2CCN(C(=O)c2cc(F)c(F)c(F)c2F)[C@@H]3C)n1` [Compound 10, (R)-(8-methyl-3-(3-methyl-1,2,4-thiadiazol-5-yl)-5,6-dihydro-[1,2,4]triazolo[4,3-a]pyrazin-7(8H)-yl)(2,3,4,5-tetrafluorophenyl)methanone], for which the pIC50 in series [1] was 7.25. Moreover, in series [2], the “Exposure (% rPPB), bound drug fraction” value turned out to be 30%. Further, the pKi in series [3] was 4.31; in series [4] it was < 4.52; in series [5] (setting [6]), 7.51; in series [5] (setting [7]), 7.51.
For the compound `CCc1noc(-c2nnc3n2CCN(C(=O)c2ccc(F)cc2)C3C)n1` (racemic) [Compound 40, (3-(3-ethyl-1,2,4-oxadiazol-5-yl)-8-methyl-5,6-dihydro-[1,2,4]triazolo[4,3-a]pyrazin-7(8H)-yl)(4-fluorophenyl)methanone], the pIC50 in series [1] was 6.89. Also, the “Exposure (% rPPB), bound drug fraction” value in series [2] worked out at 24%. Also, the pKi was < 4.52 in series [3], < 4.52 in series [4], 7.08 in series [5] (setting [6]) and 7.08 in series [5] (setting [7]).
On to `Cc1nsc(-c2nnc3n2CCN(C(=O)c2cc(F)cc(F)c2)[C@@H]3C)n1` [Compound 17, (R)-(3,5-difluorophenyl)(8-methyl-3-(3-methyl-1,2,4-thiadiazol-5-yl)-5,6-dihydro-[1,2,4]triazolo[4,3-a]pyrazin-7(8H)-yl)methanone], for which, in series [1], the pIC50 is 7.30. For the same compound, the “Exposure (% rPPB), bound drug fraction” value in series [2] stood at 24%. Besides, the pKi in series [3] was < 4.52; in series [4], < 4.52; in series [5] (setting [6]), 7.29; in series [5] (setting [7]) it was 7.29.
As for `Cc1nsc(-c2nnc3n2CCN(C(=O)c2ccc(F)cc2)[C@@H]3CCO)n1` [Compound 11, (R)-(4-fluorophenyl)(8-(2-hydroxyethyl)-3-(3-methyl-1,2,4-thiadiazol-5-yl)-5,6-dihydro-[1,2,4]triazolo[4,3-a]pyrazin-7(8H)-yl)methanone], the negative logarithm of the IC50 (pIC50) in series [1] was 7.14. For the same compound, the pKi in series [3] is < 4.52; in series [4], 4.66; in series [5] (setting [6]), 7.49; in series [5] (setting [7]) it was 7.49.
Consider `Cc1nsc(-c2nnc3n2CCN(C(=O)c2ccc(Cl)cc2)[C@@H]3C)n1` [Compound 3, (R)-(4-chlorophenyl)(8-methyl-3-(3-methyl-1,2,4-thiadiazol-5-yl)-5,6-dihydro-[1,2,4]triazolo[4,3-a]pyrazin-7(8H)-yl)methanone], for which the pIC50 in series [1] is 7.49. For the same compound, the pKi in series [3] is < 4.52; in series [4] it was < 4.52; in series [5] (setting [6]) it was 7.72; in series [5] (setting [7]), 7.72.
Consider `COc1cccc(C(=O)N2CCn3c(-c4nc(C)ns4)nnc3[C@H]2C)c1` [Compound 27, (R)-(3-methoxyphenyl)(8-methyl-3-(3-methyl-1,2,4-thiadiazol-5-yl)-5,6-dihydro-[1,2,4]triazolo[4,3-a]pyrazin-7(8H)-yl)methanone], for which the “Exposure (% rPPB), bound drug fraction” value in series [2] was 24%.
On to `CCC1c2nnc(-c3nc(C)ns3)n2CCN1C(=O)c1ccc(F)cc1` (racemic) [Compound 23, (8-ethyl-3-(3-methyl-1,2,4-thiadiazol-5-yl)-5,6-dihydro-[1,2,4]triazolo[4,3-a]pyrazin-7(8H)-yl)(4-fluorophenyl)methanone], for which the “Exposure (% rPPB), bound drug fraction” value in series [2] is given as 34%.
